According to ChEMBL document CHEMBL4732126, “Design, synthesis, and biodistribution studies of new analogues of marine alkaloids: Potent in vitro and in vivo fungicidal agents against Candida spp” (Eur J Med Chem, 2021):
Active and inactive are the calls of the source. No cut-off for these calls is given here.

Key:
Candida albicans [1] = experiment: Antifungal activity against Candida albicans isolate 5 assessed as reduction in fungal growth incubated for 48 hrs by broth microdilution method; assay type: functional
Candida albicans [2] = experiment: Antifungal activity against Candida albicans ATCC 10231 assessed as reduction in fungal growth incubated for 48 hrs by broth microdilution method; assay type: functional
Candida albicans [3] = experiment: Fungicidal activity against Candida albicans isolate 9 assessed as fungal killing incubated for 48 hrs followed by plating on SD agar plate; assay type: functional; conditions: read-out: MFC99.9
Pichia kudriavzevii [4] = experiment: Antifungal activity against Candida krusei ATCC 34135 assessed as reduction in fungal growth incubated for 48 hrs in presence of ergosterol by broth microdilution method; assay type: functional
Candida albicans [5] = experiment: Antibiofilm activity against Candida albicans ATCC 10231 assessed as reduction in mature biofilm at 125 ug/ml incubated for 48 hrs by crystal violet staining based spectrophotometric analysis relative to control; assay type: functional
Candida albicans [6] = experiment: In vivo antifungal activity in Swiss mouse infected with Candida albicans ATCC 10231 assessed as reduction in fungal load in kidney at 0.5 mg/kg, ip administered at 2, 24 and 48 hrs post-infection and measured per gm of organ at 24 hrs post-last dose (reference value: 2.47); assay type: functional; conditions: time 72 hrs
Candida albicans [7] = experiment: Fungicidal activity against Candida albicans isolate 3 assessed as fungal killing incubated for 48 hrs followed by plating on SD agar plate; assay type: functional; conditions: read-out: MFC99.9
[8] = Toxicity in Swiss mouse assessed as relative lung weight at 1 mg/kg, ip measured after 24 hrs (reference value: 6.35 +/- 0.68 g); assay type: organism-based; conditions: in vivo
[9] = Toxicity in Swiss mouse infected with Candida albicans ATCC 10231 assessed as reduction in body weight at 10 mg/kg, ip administered at 2, 24 and 48 hrs post-infection and measured at 24 hrs after last dose; assay type: organism-based; conditions: in vivo, 72 h
[10] = Toxicity in Swiss mouse assessed as body weight at 20 mg/kg, ip measured after 24 hrs (reference value: 36.25 +/- 0.31 g); assay type: organism-based; conditions: in vivo
Candida albicans [11] = experiment: In vivo antifungal activity in Swiss mouse infected with Candida albicans ATCC 10231 assessed as reduction in fungal load in liver at 0.5 mg/kg, ip administered at 2, 24 and 48 hrs post-infection and measured per gm of organ at 24 hrs post-last dose (reference value: 1.80); assay type: functional; conditions: time 72 hrs
[12] = Toxicity in Swiss mouse assessed as relative liver weight at 1 mg/kg, ip measured after 24 hrs (reference value: 49.42 +/- 7.17 g); assay type: organism-based; conditions: in vivo
Candida albicans [13] = experiment: Antibiofilm activity against Candida albicans ATCC 10231 assessed as reduction in mature biofilm incubated for 48 hrs by crystal violet staining based spectrophotometric analysis relative to control; assay type: functional, organism-based; conditions: dose 0.48-125 µg/ml
[14] = Toxicity in Swiss mouse assessed as effect on heart at 0.5 to 10 mg/kg, ip measured after 24 hrs by macroscopic analysis; assay type: organism-based; conditions: in vivo, dose 0.5-10 mg/kg
[15] = Toxicity in Swiss mouse assessed as relative liver weight at 20 mg/kg, ip measured after 24 hrs (reference value: 49.42 +/- 7.17 g); assay type: organism-based; conditions: in vivo
Pichia kudriavzevii [16] = experiment: Antifungal activity against Candida krusei ATCC 34135 assessed as reduction in fungal growth incubated for 48 hrs by broth microdilution method; assay type: functional
Candida albicans [17] = experiment: Antifungal activity against Candida albicans isolate 3 assessed as reduction in fungal growth incubated for 48 hrs by broth microdilution method; assay type: functional
[18] = Toxicity in Swiss mouse assessed as relative liver weight at 10 mg/kg, ip measured after 24 hrs (reference value: 49.42 +/- 7.17 g); assay type: organism-based; conditions: in vivo
Candida albicans [19] = experiment: Fungicidal activity against Candida albicans isolate 7 assessed as fungal killing incubated for 48 hrs followed by plating on SD agar plate; assay type: functional; conditions: read-out: MFC99.9
Candida albicans [20] = experiment: Antifungal activity against Candida albicans isolate 13 assessed as reduction in fungal growth incubated for 48 hrs by broth microdilution method; assay type: functional
[21] = Toxicity in Swiss mouse assessed as relative lung weight at 20 mg/kg, ip measured after 24 hrs (reference value: 6.35 +/- 0.68 g); assay type: organism-based; conditions: in vivo
Candida albicans [22] = experiment: Antifungal activity against Candida albicans isolate 6 assessed as reduction in fungal growth incubated for 48 hrs by broth microdilution method; assay type: functional
Candida tropicalis = experiment: Antifungal activity against Candida tropicalis ATCC 28707 assessed as reduction in fungal growth incubated for 48 hrs in presence of sorbitol by broth microdilution method; assay type: functional
[23] = Toxicity in Swiss mouse assessed as relative spleen weight at 0.5 mg/kg, ip measured after 24 hrs (reference value: 4.02 +/- 0.59 g); assay type: organism-based; conditions: in vivo
[24] = Toxicity in Swiss mouse infected with Candida albicans ATCC 10231 assessed as effect on liver at 10 mg/kg, ip administered at 2, 24 and 48 hrs post-infection and measured at 24 hrs after last dose by macroscopic analysis; assay type: organism-based; conditions: in vivo, 72 h
[25] = Toxicity in Swiss mouse assessed as effect on liver at 0.5 to 10 mg/kg, ip measured after 24 hrs by macroscopic analysis; assay type: organism-based; conditions: in vivo, dose 0.5-10 mg/kg
[26] = Toxicity in Swiss mouse infected with Candida albicans ATCC 10231 assessed as effect on spleen at 10 mg/kg, ip administered at 2, 24 and 48 hrs post-infection and measured at 24 hrs after last dose by macroscopic analysis; assay type: organism-based; conditions: in vivo, 72 h
[27] = Toxicity in Swiss mouse assessed as relative spleen weight at 3 mg/kg, ip measured after 24 hrs (reference value: 4.02 +/- 0.59 g); assay type: organism-based; conditions: in vivo
Nakaseomyces glabratus = experiment: Antifungal activity against Candida glabrata ATCC 2001 assessed as reduction in fungal growth incubated for 48 hrs in presence of ergosterol by broth microdilution method; assay type: functional
Candida albicans [28] = experiment: Fungicidal activity against Candida albicans isolate 8 assessed as fungal killing incubated for 48 hrs followed by plating on SD agar plate; assay type: functional; conditions: read-out: MFC99.9
Candida albicans [29] = experiment: Antibiofilm activity against Candida albicans ATCC 10231 assessed as reduction in biofilm formation at 0.24 to 7.81 ug/ml by crystal violet staining based spectrophotometric analysis; assay type: functional, organism-based; conditions: dose 0.24-7.81 µg/ml
[30] = Toxicity in Swiss mouse assessed as relative lung weight at 0.5 mg/kg, ip measured after 24 hrs (reference value: 6.35 +/- 0.68 g); assay type: organism-based; conditions: in vivo
[31] = Toxicity in Swiss mouse assessed as effect on spleen at 0.5 to 10 mg/kg, ip measured after 24 hrs by macroscopic analysis; assay type: organism-based; conditions: in vivo, dose 0.5-10 mg/kg
Pichia kudriavzevii [32] = experiment: Antifungal activity against Candida krusei ATCC 34135 assessed as reduction in fungal growth incubated for 48 hrs in presence of sorbitol by broth microdilution method; assay type: functional
Candida albicans [33] = experiment: Fungicidal activity against Candida albicans isolate 1 assessed as fungal killing incubated for 48 hrs followed by plating on SD agar plate; assay type: functional; conditions: read-out: MFC99.9
Candida albicans [34] = experiment: Fungicidal activity against Candida albicans isolate 13 assessed as fungal killing incubated for 48 hrs followed by plating on SD agar plate; assay type: functional; conditions: read-out: MFC99.9
[35] = Toxicity in Swiss mouse assessed as death of organism at 0.5 to 20 mg/kg, ip measured for 24 hrs; assay type: organism-based; conditions: in vivo, dose 0.5-20 mg/kg
Candida albicans [36] = experiment: Antifungal activity against Candida albicans isolate 1 assessed as reduction in fungal growth incubated for 48 hrs by broth microdilution method; assay type: functional
[37] = Toxicity in Swiss mouse assessed as body weight at 10 mg/kg, ip measured after 24 hrs (reference value: 36.25 +/- 0.31 g); assay type: organism-based; conditions: in vivo

Q: With `[Cl-].[N-]=[N+]=NCCCCCCCCCCCCOCCCc1ccc[n+](Cc2ccccc2)c1` as the molecule, how does the MIC (Candida albicans [1]) read?
A: 7.8 µg/mL

Q: And the MIC (Candida albicans [2])?
A: 7.8 µg/mL

Q: And the MFC (Candida albicans [3])?
A: 31.2 µg/mL

Q: And the MIC (Pichia kudriavzevii [4])?
A: 15.6 µg/mL

Q: And the inhibition at 125 µg/mL (Candida albicans [5])?
A: 40%

Q: And the Activity (Candida albicans [6])?
A: 0 log10CFU

Q: And the MFC (Candida albicans [7])?
A: 7.8 µg/mL

Q: What about the Activity [8] of the same molecule?
A: 5.33 g

Q: What about the Activity [9] of the same molecule?
A: Toxic

Q: What about the Activity [10] of the same molecule?
A: 32.5 g

Q: What about the Activity (Candida albicans [11]) of the same molecule?
A: 0 log10CFU

Q: And the Activity [12]?
A: 44.68 g

Q: What about the Activity (Candida albicans [13]) of the same molecule?
A: Dose-dependent effect

Q: And the Activity [14]?
A: Non-Toxic

Q: What about the Activity [15] of the same molecule?
A: 45 g

Q: And the MIC (Pichia kudriavzevii [16])?
A: 3.9 µg/mL

Q: What about the MIC (Candida albicans [17]) of the same molecule?
A: 7.8 µg/mL

Q: And the Activity [18]?
A: 43.58 g

Q: And the MFC (Candida albicans [19])?
A: 3.9 µg/mL

Q: What about the MIC (Candida albicans [20]) of the same molecule?
A: 7.8 µg/mL

Q: And the Activity [21]?
A: 5.38 g

Q: What about the MIC (Candida albicans [22]) of the same molecule?
A: 15.6 µg/mL

Q: What about the MIC (Candida tropicalis) of the same molecule?
A: 7.8 µg/mL

Q: What about the Activity [23] of the same molecule?
A: 3.85 g

Q: What about the Activity [24] of the same molecule?
A: Non-Toxic

Q: And the Activity [25]?
A: Non-Toxic

Q: And the Activity [26]?
A: Non-Toxic

Q: What about the Activity [27] of the same molecule?
A: 4.07 g

Q: What about the MIC (Nakaseomyces glabratus) of the same molecule?
A: 7.8 µg/mL

Q: And the MFC (Candida albicans [28])?
A: 7.8 µg/mL

Q: And the Activity (Candida albicans [29])?
A: Active

Q: What about the Activity [30] of the same molecule?
A: 5.57 g

Q: And the Activity [31]?
A: Non-Toxic

Q: What about the MIC (Pichia kudriavzevii [32]) of the same molecule?
A: 3.9 µg/mL

Q: And the MFC (Candida albicans [33])?
A: 7.8 µg/mL

Q: What about the MFC (Candida albicans [34]) of the same molecule?
A: 7.8 µg/mL

Q: What about the Activity [35] of the same molecule?
A: Non-Toxic

Q: And the MIC (Candida albicans [36])?
A: 7.8 µg/mL

Q: And the Activity [37]?
A: 31.37 g
